Source: ChEMBL document CHEMBL1201862, “PubChem BioAssay data set” (2004)
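48-hour exposure; five concentrations; linearly interpolated endpoints. The concentration for 50% growth inhibition is given as GI50.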 Calls of active or inactive are those of the source. Rule as the data show it: active = GI50 up to about 1.1 µM and inactive = higher.

Legend:
Experiment in all cases: NCI-60 cell line screen, 48 h
M14 = system: M14
HOP-92 = system: HOP-92
SK-OV-3 = system: SK-OV-3
Malme-3M = system: Malme-3M
NCI/ADR-RES = system: NCI/ADR-RES
CCRF-CEM = system: CCRF-CEM
COLO 205 = system: COLO 205
786-0 = system: 786-0
Hs-578T = system: Hs-578T
HOP-62 = system: HOP-62
KM12 = system: KM12
A549 = system: A549
UACC-62 = system: UACC-62
SF-539 = system: SF-539
TK-10 = system: TK-10
SW-620 = system: SW-620
SK-MEL-5 = system: SK-MEL-5
ACHN = system: ACHN
U-251 = system: U-251
OVCAR-5 = system: OVCAR-5

SMILES	GI50 (M14)	GI50 (HOP-92)	GI50 (SK-OV-3)	GI50 (Malme-3M)	GI50 (NCI/ADR-RES)	GI50 (CCRF-CEM)	GI50 (COLO 205)	GI50 (786-0)	GI50 (Hs-578T)	GI50 (HOP-62)	GI50 (KM12)	GI50 (A549)	GI50 (UACC-62)	GI50 (SF-539)	GI50 (TK-10)	GI50 (SW-620)	GI50 (SK-MEL-5)	GI50 (ACHN)	GI50 (U-251)	GI50 (OVCAR-5)
CCN(CC)c1ccc2cc(C(N)=S)c(=N)oc2c1	> 100 µM (inactive)	> 100 µM (inactive)	> 100 µM (inactive)	87.9 µM (inactive)	> 100 µM (inactive)	> 100 µM (inactive)	> 100 µM (inactive)	> 100 µM (inactive)	> 100 µM (inactive)	> 100 µM (inactive)	> 100 µM (inactive)	> 100 µM (inactive)	> 100 µM (inactive)	> 100 µM (inactive)	> 100 µM (inactive)	> 100 µM (inactive)	> 100 µM (inactive)	> 100 µM (inactive)	> 100 µM (inactive)	> 100 µM (inactive)
O=c1[nH]nc(-c2ccccc2)c2[nH]c3c(c12)Cc1ccccc1-3	4.06 µM (inactive)	1.67 µM (inactive)	6.68 µM (inactive)	1.08 µM (active)	2.14 µM (inactive)	3.92 µM (inactive)	1.61 µM (inactive)	4.8 µM (inactive)	5.46 µM (inactive)	9.38 µM (inactive)	< 0.0306 µM (active)	21.2 µM (inactive)	0.299 µM (active)	2.34 µM (inactive)	7.59 µM (inactive)	2.06 µM (inactive)	0.115 µM (active)	6.18 µM (inactive)	3.64 µM (inactive)	7.16 µM (inactive)
CC(C)[C@H](NC(=O)OCc1ccccc1)C(=O)N[C@H](/C=C/C(=O)OC(C)(C)C)CO	> 100 µM (inactive)	> 100 µM (inactive)	> 100 µM (inactive)	> 100 µM (inactive)	> 100 µM (inactive)	28.1 µM (inactive)	80.4 µM (inactive)	65.6 µM (inactive)	> 100 µM (inactive)	> 100 µM (inactive)	> 100 µM (inactive)	> 100 µM (inactive)	> 100 µM (inactive)	> 100 µM (inactive)	> 100 µM (inactive)	92.9 µM (inactive)	> 100 µM (inactive)	> 100 µM (inactive)	–	> 100 µM (inactive)
CCC(C)NC(=S)N/N=C(\C)c1nc2cccnc2[nH]1 (stereo unspecified)	12.7 µM (inactive)	7.18 µM (inactive)	10.3 µM (inactive)	6.73 µM (inactive)	16.7 µM (inactive)	3.09 µM (inactive)	3.54 µM (inactive)	13.6 µM (inactive)	19.3 µM (inactive)	7.78 µM (inactive)	15.9 µM (inactive)	14.9 µM (inactive)	6.11 µM (inactive)	21.7 µM (inactive)	12.3 µM (inactive)	4.52 µM (inactive)	4.72 µM (inactive)	9.57 µM (inactive)	9.14 µM (inactive)	13.4 µM (inactive)
OC(c1ccccc1)c1c(-c2ccccc2)[nH]c(-c2ccccc2)c1C(O)c1ccccc1 (stereo unspecified)	3.66 µM (inactive)	2.19 µM (inactive)	4.25 µM (inactive)	2.59 µM (inactive)	2.69 µM (inactive)	2.65 µM (inactive)	1.74 µM (inactive)	4.38 µM (inactive)	3.76 µM (inactive)	4.58 µM (inactive)	3.25 µM (inactive)	3.73 µM (inactive)	2.84 µM (inactive)	2.95 µM (inactive)	4.44 µM (inactive)	4.9 µM (inactive)	2.55 µM (inactive)	3.17 µM (inactive)	3.78 µM (inactive)	2.77 µM (inactive)
CC(=O)NC1C(OCc2ccccc2)OC(CO)C(O)C1OCC(=O)N[C@@H](C)C(=O)N[C@H](CCC(=O)NCCCNc1c2ccccc2nc2cccc([N+](=O)[O-])c12)C(N)=O (stereo partly specified)	0.0341 µM (active)	0.0295 µM (active)	0.334 µM (active)	0.0292 µM (active)	0.564 µM (active)	0.052 µM (active)	0.0118 µM (active)	< 0.0168 µM (active)	0.156 µM (active)	0.08 µM (active)	0.037 µM (active)	0.0245 µM (active)	0.0321 µM (active)	0.0298 µM (active)	0.0253 µM (active)	0.0172 µM (active)	0.0148 µM (active)	0.0182 µM (active)	0.0349 µM (active)	0.0718 µM (active)
O=C(/C=C\Nc1ccccc1O)C(F)(F)F	40.3 µM (inactive)	> 100 µM (inactive)	49.1 µM (inactive)	26.5 µM (inactive)	> 100 µM (inactive)	39 µM (inactive)	13.9 µM (inactive)	35.1 µM (inactive)	> 100 µM (inactive)	30.6 µM (inactive)	> 100 µM (inactive)	> 100 µM (inactive)	45.4 µM (inactive)	> 100 µM (inactive)	> 100 µM (inactive)	> 100 µM (inactive)	21 µM (inactive)	67.8 µM (inactive)	41.6 µM (inactive)	> 100 µM (inactive)
OCCN(CO)CO	> 100 µM (inactive)	> 100 µM (inactive)	> 100 µM (inactive)	> 100 µM (inactive)	> 100 µM (inactive)	–	> 100 µM (inactive)	91.4 µM (inactive)	> 100 µM (inactive)	> 100 µM (inactive)	> 100 µM (inactive)	> 100 µM (inactive)	> 100 µM (inactive)	> 100 µM (inactive)	> 100 µM (inactive)	> 100 µM (inactive)	> 100 µM (inactive)	> 100 µM (inactive)	> 100 µM (inactive)	–
CCOC(=O)C1=C(C)N(C)C(=S)NC1c1cccc(O)c1 (stereo unspecified)	29.4 µM (inactive)	22.9 µM (inactive)	36.4 µM (inactive)	–	18.7 µM (inactive)	21.4 µM (inactive)	31.8 µM (inactive)	37.9 µM (inactive)	46.7 µM (inactive)	77.4 µM (inactive)	29 µM (inactive)	36.6 µM (inactive)	63.7 µM (inactive)	53.2 µM (inactive)	> 100 µM (inactive)	37.5 µM (inactive)	18.5 µM (inactive)	71 µM (inactive)	34.8 µM (inactive)	64.1 µM (inactive)
Cc1cc(C2(c3cc(C)c(O)c(C(=O)O)c3)OS(=O)(=O)c3ccccc32)cc(C(=O)O)c1O	> 100 µM (inactive)	> 100 µM (inactive)	> 100 µM (inactive)	> 100 µM (inactive)	> 100 µM (inactive)	–	> 100 µM (inactive)	> 100 µM (inactive)	> 100 µM (inactive)	> 100 µM (inactive)	> 100 µM (inactive)	> 100 µM (inactive)	> 100 µM (inactive)	> 100 µM (inactive)	> 100 µM (inactive)	> 100 µM (inactive)	> 100 µM (inactive)	> 100 µM (inactive)	> 100 µM (inactive)	> 100 µM (inactive)
CC1=CC(=O)/C(=C/Nc2nc(-c3ccc([N+](=O)[O-])cc3)cs2)C(=O)O1	> 100 µM (inactive)	> 100 µM (inactive)	> 100 µM (inactive)	–	> 100 µM (inactive)	31.5 µM (inactive)	> 100 µM (inactive)	> 100 µM (inactive)	> 100 µM (inactive)	> 100 µM (inactive)	> 100 µM (inactive)	> 100 µM (inactive)	> 100 µM (inactive)	> 100 µM (inactive)	> 100 µM (inactive)	> 100 µM (inactive)	> 100 µM (inactive)	> 100 µM (inactive)	> 100 µM (inactive)	> 100 µM (inactive)
C=C(C)[C@@H]1CC[C@]2(C(=O)O)CC[C@]3(C)[C@H](CC[C@@H]4[C@@]5(C)CC[C@H](C(=O)/C=C/c6ccc(O)cc6)C(C)(C)[C@@H]5CC[C@]43C)[C@@H]12	7.13 µM (inactive)	11.9 µM (inactive)	6.15 µM (inactive)	13.5 µM (inactive)	3.22 µM (inactive)	2.39 µM (inactive)	2.39 µM (inactive)	4.92 µM (inactive)	4.75 µM (inactive)	8.39 µM (inactive)	3.29 µM (inactive)	9.73 µM (inactive)	8.89 µM (inactive)	3.01 µM (inactive)	7.82 µM (inactive)	2.93 µM (inactive)	2.55 µM (inactive)	–	2.93 µM (inactive)	11.5 µM (inactive)
COc1ccc(OC)c(N2C(=O)CSC2c2cc(OC)c(OC)c(OC)c2)c1 (stereo unspecified)	> 100 µM (inactive)	> 100 µM (inactive)	> 100 µM (inactive)	> 100 µM (inactive)	> 100 µM (inactive)	71.8 µM (inactive)	> 100 µM (inactive)	> 100 µM (inactive)	> 100 µM (inactive)	–	81.7 µM (inactive)	> 100 µM (inactive)	> 100 µM (inactive)	> 100 µM (inactive)	> 100 µM (inactive)	> 100 µM (inactive)	99.8 µM (inactive)	> 100 µM (inactive)	> 100 µM (inactive)	> 100 µM (inactive)
COc1ccc(COCC[C@H](C)OC2OC(CO)C(O)C(O)C2O)cc1 (stereo partly specified)	> 100 µM (inactive)	> 100 µM (inactive)	> 100 µM (inactive)	–	> 100 µM (inactive)	> 100 µM (inactive)	> 100 µM (inactive)	> 100 µM (inactive)	> 100 µM (inactive)	> 100 µM (inactive)	> 100 µM (inactive)	> 100 µM (inactive)	> 100 µM (inactive)	> 100 µM (inactive)	> 100 µM (inactive)	> 100 µM (inactive)	> 100 µM (inactive)	> 100 µM (inactive)	> 100 µM (inactive)	> 100 µM (inactive)
